# According to patent publication US10604509B2, “Nrf2 regulators” (GlaxoSmithKline Intellectual Property Development Limited, priority 2015, dated 2020):
# pEC50: −log10 of the molar value. Where a name gives a salt, the structure may show the parent alone.
# Tested on: rats
# Assay: not given
# Conditions: rats on a choline-deficient L-amino acid-defined diet; cited from earlier work
row,Compound,"progression of histologic abnormalities, especially hepatic fibrosis"
1,O=C(NCc1ccccn1)Nc1nnc(-c2ccco2)o1 [NK-252],significantly attenuated progression of histologic abnormalities

# Tested on: NQO1 specific enzyme activity in BEAS-2B cells
# Assay: BEAS-2B NQO1 MTT assay
# Type: cell-based
# Conditions: BEAS-2B cells, 48 hours with compound, MTT readout; read-out: EC50 of NQO1 specific activity induction
# In short: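 NQO1 specific activity, an NRF2 activation marker, read kinetically as absorbance change at 570 nm for 30 min after MTT cocktail addition to crude lysates of BEAS-2B cells exposed 48 h to compound. Three-parameter fit of Delta OD/min against log concentration gives EC50; lysate portion used for Cell Titer Glo.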
row,Compound,pEC50
1,"(S)-3-(1,4-Dimethyl-1H- benzo[d][1,2,3]triazol-5- yl)-3-(3-(((R)-2-ethyl-9- fluoro-2,3- dihydrobenzo[f][1,4]oxa- zepin-4(5H)-yl)methyl)-4- methylphenyl)-2,2- dimethylpropanoic acid, trifluoroacetic acid salt [Example 25]",> 9.00

# Same assay, conditions: Homo sapiens, BEAS-2B, 48 h, BEAS-2B cells, 48 hours with compound, MTT readout; read-out: EC50 of NQO1 specific activity induction
row,Compound,pEC50
1,"CCn1cc(CCC(CC(=O)O)c2ccc(Cl)c(CN3Cc4cccnc4OC(C)(C)C3)c2)nn1 (stereo not drawn) [Example 233, 3-(4-Chloro-3-((2,2-dimethyl-2,3-dihydropyrido[3,2-f][1,4]oxazepin-4(5H)-yl)methyl)phenyl)-5-(1-ethyl-1H-1,2,3-triazol-4-yl)pentanoic Acid]",5.00 to 6.00
2,"CC[C@@H]1CN(Cc2cc(C(CCc3cn(CC)nn3)CC(=O)NS(C)(=O)=O)ccc2C)Cc2cnccc2O1 (stereo partly drawn) [Example 234, 5-(1-Ethyl-1H-1,2,3-triazol-4-yl)-3-(3-(((R)-2-ethyl-2,3-dihydropyrido[3,4-f][1,4]oxazepin-4(5H)-yl)methyl)-4-methylphenyl)-N-(methylsulfonyl)pentanamide]",5.00 to 6.00
3,"Cc1ccc([C@@H](c2ccc3c(nnn3C)c2C)C(C)(C)C(=O)O)cc1Cn1ccnc1CC1CCCCCC1 [Example 235, (S)-3-(3-((2-(Cycloheptylmethyl)-1H-imidazol-1-yl)methyl)-4-methylphenyl)-3-(1,4-dimethyl-1H-benzo[d][1,2,3]triazol-5-yl)-2,2-dimethylpropanoic Acid]",> 9.00
4,"CCC1CCN(Cc2nccn2Cc2cc(C(c3ccc4c(nnn4C)c3C)C(C)(C)C(=O)O)ccc2Cl)CC1 (stereo not drawn) [Example 236, 3-(4-Chloro-3-((2-((4-ethylpiperidin-1-yl)methyl)-1H-imidazol-1-yl)methyl)phenyl)-3-(1,4-dimethyl-1H-benzo[d][1,2,3]triazol-5-yl)-2,2-dimethylpropanoic Acid]",> 9.00
5,"CCC1CCN(Cc2nccn2Cc2cc([C@@H](c3ccc4c(nnn4C)c3C)C(C)(C)C(=O)O)ccc2Cl)CC1 [Example 237, (S)-3-(4-Chloro-3-((2-((4-ethylpiperidin-1-yl)methyl)-1H-imidazol-1-yl)methyl)phenyl)-3-(1,4-dimethyl-1H-benzo[d][1,2,3]triazol-5-yl)-2,2-dimethylpropanoic Acid]",> 9.00
6,"CCC1CCN(Cc2nccn2Cc2cc([C@H](c3ccc4c(nnn4C)c3C)C(C)(C)C(=O)O)ccc2Cl)CC1 [Example 238, (R)-3-(4-Chloro-3-((2-((4-ethylpiperidin-1-yl)methyl)-1H-imidazol-1-yl)methyl)phenyl)-3-(1,4-dimethyl-1H-benzo[d][1,2,3]triazol-5-yl)-2,2-dimethylpropanoic Acid]",8.00 to 9.00
7,"CCC1CCN(Cc2nccn2Cc2cc([C@@H](c3ccc4c(nnn4CC)c3C)C(C)(C)C(=O)O)ccc2C)CC1 [Example 239, (S)-3-(1-Ethyl-4-methyl-1H-benzo[d][1,2,3]triazol-5-yl)-3-(3-((2-((4-ethylpiperidin-1-yl)methyl)-1H-imidazol-1-yl)methyl)-4-methylphenyl)-2,2-dimethylpropanoic Acid]",> 9.00
8,"CCC1(C)CN(Cc2cc([C@@H](c3ccc4c(nnn4C)c3C)C(C)(C)C(=O)O)ccc2C)Cc2ccccc2O1 (stereo partly drawn) [Example 240, (3S)-3-(1,4-Dimethyl-1H-benzo[d][1,2,3]triazol-5-yl)-3-(3-((2-ethyl-2-methyl-2,3-dihydrobenzo[f][1,4]oxazepin-4(5H)-yl)methyl)-4-methylphenyl)-2,2-dimethylpropanoic Acid]",8.00 to 9.00
9,"Cc1ccc(C(CC(=O)O)c2ccc3c(nnn3C)c2C)cc1CN1Cc2ccccc2OC2(CC2)C1 (stereo not drawn) [Example 243, 3-(3-((3H-Spiro[benzo[f][1,4]oxazepine-2,1′-cyclopropan]-4(5H)-yl)methyl)-4-methylphenyl)-3-(1,4-dimethyl-1H-benzo[d][1,2,3]triazol-5-yl)propanoic Acid]",6.00 to 7.00
10,"Cc1ccc(C(CC(=O)O)c2ccc3c(nnn3C)c2C)cc1CN1Cc2ccccc2OC2(CCC2)C1 (stereo not drawn) [Example 244, 3-(3-((3H-Spiro[benzo[f][1,4]oxazepine-2,1′-cyclobutan]-4(5H)-yl)methyl)-4-methylphenyl)-3-(1,4-dimethyl-1H-benzo[d][1,2,3]triazol-5-yl)propanoic Acid]",7.00 to 8.00
11,"Cc1ccc(C(c2ccc3c(nnn3C)c2C)C(C)(C)C(=O)O)cc1Cn1ccnc1CC1CCCOCC1 (stereo not drawn) [Example 245, 3-(1,4-Dimethyl-1H-benzo[d][1,2,3]triazol-5-yl)-2,2-dimethyl-3-(4-methyl-3-((2-(oxepan-4-ylmethyl)-1H-imidazol-1-yl)methyl)phenyl)propanoic Acid]",7.00 to 8.00
12,"CCC1CN(Cc2cc(C(c3ccc4c(nnn4C)c3C)C(C)(C)C(=O)O)ccc2C)CCC(C2CC2)O1 (stereo not drawn) [Example 246, 3-(3-((7-Cyclopropyl-2-ethyl-1,4-oxazepan-4-yl)methyl)-4-methylphenyl)-3-(1,4-dimethyl-1H-benzo[d][1,2,3]triazol-5-yl)-2,2-dimethylpropanoic Acid]",6.00 to 7.00
13,"CC[C@@H]1CN(Cc2cc([C@@H](c3ccc4c(nnn4C)c3C)C(C)(C)C(=O)OCOC(=O)C(C)(C)C)ccc2C)Cc2cnccc2O1 [Example 253, (S)-(Pivaloyloxy)methyl 3-(1,4-dimethyl-1H-benzo[d][1,2,3]triazol-5-yl)-3-(3-(((R)-2-ethyl-2,3-dihydropyrido[3,4-f][1,4]oxazepin-4(5H)-yl)methyl)-4-methylphenyl)-2,2-dimethylpropanoate]",> 9.00
14,"CC[C@@H]1CN(Cc2cc([C@@H](c3ccc4c(nnn4C)c3C)C(C)(C)C(=O)N3CCSC3=O)ccc2C)Cc2cnccc2O1 [Example 256, 3-((S)-3-(1,4-Dimethyl-1H-benzo[d][1,2,3]triazol-5-yl)-3-(3-(((R)-2-ethyl-2,3-dihydropyrido[3,4-f][1,4]oxazepin-4(5H)-yl)methyl)-4-methylphenyl)-2,2-dimethylpropanoyl)thiazolidin-2-one, Trifluoroacetic Acid Salt]",7.00 to 8.00
15,"CCOC(=O)C(C)(C)[C@@H](c1ccc(C)c(CN2Cc3cnccc3O[C@H](CC)C2)c1)c1ccc2c(nnn2C)c1C [Example 257, (S)-ethyl 3-(1,4-dimethyl-1H-benzo[d][1,2,3]triazol-5-yl)-3-(3-(((R)-2-ethyl-2,3-dihydropyrido[3,4-f][1,4]oxazepin-4(5H)-yl)methyl)-4-methylphenyl)-2,2-dimethylpropanoate]",6.00 to 7.00
16,"CC[C@@H]1CN(Cc2cc([C@H](CC(=O)O)c3ccc4c(nnn4C)c3C)ccc2C)Cc2ccncc2O1 [Example 259, (S)-3-(1,4-dimethyl-1H-benzo[d][1,2,3]triazol-5-yl)-3-(3-(((R)-2-ethyl-2,3-dihydropyrido[4,3-f][1,4]oxazepin-4(5H)-yl)methyl)-4-methylphenyl)propanoic acid]",6.00 to 7.00
17,"CC[C@@H]1CN(Cc2cc([C@H](CC(=O)O)c3ccc4c(nnn4C)c3C)ccc2F)Cc2ccncc2O1 [Example 260, (S)-3-(1,4-dimethyl-1H-benzo[d][1,2,3]triazol-5-yl)-3-(3-(((R)-2-ethyl-2,3-dihydropyrido[4,3-f][1,4]oxazepin-4(5H)-yl)methyl)-4-fluorophenyl)propanoic acid]",6.00 to 7.00
18,"CC[C@@H]1CN(Cc2cc([C@H](CC(=O)O)c3ccc4c(nnn4C)c3C)ccc2Cl)Cc2ncccc2O1 [Example 263, (S)-3-(4-chloro-3-(((R)-2-ethyl-2,3-dihydropyrido[2,3-f][1,4]oxazepin-4(5H)-yl)methyl)phenyl)-3-(1,4-dimethyl-1H-benzo[d][1,2,3]triazol-5-yl)propanoic acid]",7.00 to 8.00
19,"Cc1ccc([C@H](CC(=O)O)c2ccc3c(nnn3C)c2C)cc1CN1Cc2ccncc2OC(C)(C)C1 [Example 264, (S)-3-(1,4-dimethyl-1H-benzo[d][1,2,3]triazol-5-yl)-3-(3-((2,2-dimethyl-2,3-dihydropyrido[4,3-f][1,4]oxazepin-4(5H)-yl)methyl)-4-methylphenyl)propanoic acid]",5.00 to 6.00
20,CCC1CN(Cc2cc(C(CC(=O)O)c3cc(OC)c4c(c3)nnn4C)ccc2C)Cc2ccccc2O1 (stereo not drawn) [compound 46],6.00 to 7.00
21,"CCC1Cc2ccc(F)cc2CN(Cc2cc(C(CC(=O)O)c3ccc4c(nnn4C)c3C)ccc2C)C1 (stereo not drawn) [compound 107, 3-(1,4-dimethyl-1H-benzo[d][1,2,3]triazol-5-yl)-3-(3-((4-ethyl-8-fluoro-4,5-dihydro-1H-benzo[c]azepin-2(3H)-yl)methyl)-4-methylphenyl)propanoic acid]",7.00 to 8.00
22,"Cc1ccc([C@@H](c2ccc3c(nnn3C)c2C)C(C)(C)C(=O)O)cc1CN1CCC[C@@H](n2cccn2)C1 [compound 184, (S)-3-(3-(((R)-3-(1H-Pyrazol-1-yl)piperidin-1-yl)methyl)-4-methylphenyl)-3-(1,4-dimethyl-1H-benzo[d][1,2,3]triazol-5-yl)-2,2-dimethylpropanoic acid]",6.00 to 7.00
23,"Cc1ccc(C(CC(=O)O)c2ccc3c(nnn3C)c2C)cc1CN1CCCC(S(=O)(=O)C2CCCCC2)C1 (stereo not drawn) [compound 186, 3-(3-((3-(Cyclohexylsulfonyl)piperidin-1-yl)methyl)-4-methylphenyl)-3-(1,4-dimethyl-1H-benzo[d][1,2,3]triazol-5-yl)propanoic acid]",6.00 to 7.00

# Same assay, conditions: Homo sapiens; BEAS-2B cells, 48 hours with compound, MTT readout; read-out: EC50 of NQO1 specific activity induction
row,Compound,pEC50
1,CC[C@@H]1CN(Cc2cc([C@@H](c3ccc4c(nnn4C)c3C)C(C)(C)C(=O)OCOP(=O)(O)Oc3ccccc3)ccc2C)Cc2cnccc2O1 [Example 254],8.00 to 9.00
2,"CC[C@@H]1CN(Cc2cc([C@H](CC(=O)O)c3ccc4c(nnn4C)c3C)ccc2C)Cc2ncccc2O1 [Example 258, (S)-3-(1,4-dimethyl-1H-benzo[d][1,2,3]triazol-5-yl)-3-(3-(((R)-2-ethyl-2.3-dihydropyrido[2,3-f][1,4]oxazepin-4(5H)-yl)methyl)-4-methylphenyl)propionic Acid]",7.00 to 8.00
